The text below walks through data of PubChem BioAssay AID342 (DTP/NCI, 2004).

Each structure is given as a SMILES string. Where “and” joins values, the source holds several entries; their conditions need not be identical. Equal entries are not always repeated.

For this experiment, the system named is Swiss mice, Sarcoma 180 sc, mean tumor weight T/C. Briefly: NCI In Vivo Anticancer Drug Screen. Data for tumor model Sarcoma 180 (subcutaneous) in Swiss mice. As to conditions: endpoint: mean tumor weight, higher = larger tumour. A digest of the protocol:
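Readout is the ratio of treated-group measurement to vehicle-control measurement (T/C), based on survival or tumor size in mice carrying transplanted tumors.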

[1] abbreviates: dose: 12.5 mg/kg/injection, schedule: Q01DX007 (sc), vehicle: steriod suspending solution.
Where [2] appears, read: dose: 25.0 mg/kg/injection, schedule: Q01DX007 (sc), vehicle: steriod suspending solution.
The mark [3] stands for this setting: dose: 250.0 mg/kg/injection, schedule: Q01DX007 (ip), vehicle: carboxymethylcellulose (CMC).

What is called T/C is the ratio of treated to control. On to `CC(=O)OCC(=O)[C@@]1(O)CC[C@H]2[C@@H]3C[C@H](C)C4=CC(=O)CC[C@]4(C)[C@H]3[C@@H](O)C[C@@]21C`, for which the T/C (dose: 3.0 mg/kg/injection, schedule: Q#A X014 (sc), vehicle: steriod suspending solution) was 64 % of control; the T/C (dose: 6.25 mg/kg/injection, schedule: Q#A X014 (sc), vehicle: steriod suspending solution) was 77 % of control; the T/C under setting [1] is 44 % of control; the T/C (dose: 12.5 mg/kg/injection, schedule: Q#A X014 (sc), vehicle: steriod suspending solution) is 48 % of control; the T/C under setting [2] was 37 % of control; the T/C (dose: 25.0 mg/kg/injection, schedule: Q#A X014 (sc), vehicle: steriod suspending solution) was 43 % of control. In addition, the T/C (dose: 50.0 mg/kg/injection, schedule: Q01DX007 (sc), vehicle: steriod suspending solution) was 32 % of control; the T/C (dose: 50.0 mg/kg/injection, schedule: Q#A X014 (sc), vehicle: steriod suspending solution) is 28 % of control; the T/C (dose: 100.0 mg/kg/injection, schedule: Q01DX007 (sc), vehicle: steriod suspending solution) is 25 % of control; the T/C (dose: 200.0 mg/kg/injection, schedule: Q01DX007 (sc), vehicle: steriod suspending solution) was 15 % of control.

Turning to `CC(=O)OCC(=O)[C@@]1(O)CC[C@H]2[C@@H]3CCC4=CC(=O)C=C[C@]4(C)[C@@]3(F)[C@@H](O)C[C@@]21C`, the T/C by setting is: (dose: 20.0 mg/kg/injection, schedule: Q#A X014 (sc), vehicle: steriod suspending solution) 32 % of control; (dose: 30.0 mg/kg/injection, schedule: Q#A X014 (sc), vehicle: steriod suspending solution) 32 % of control; (dose: 45.0 mg/kg/injection, schedule: Q#A X014 (sc), vehicle: steriod suspending solution) 30 % of control; (dose: 67.5 mg/kg/injection, schedule: Q#A X014 (sc), vehicle: steriod suspending solution) 24 % of control and 32 % of control.

With `CCCCCCCCCCCC1=C(O)C(=O)C(CC2=C(O)C(=O)C(CCCCCCCCCCC)=C(O)C2=O)=C(O)C1=O`, the T/C was 110 % of control (dose: 7.5 mg/kg/injection, schedule: Q01DX007 (ip), vehicle: carboxymethylcellulose (CMC)); 85 % of control (dose: 15.0 mg/kg/injection, schedule: Q01DX007 (ip), vehicle: carboxymethylcellulose (CMC)); 50 % of control (dose: 30.0 mg/kg/injection, schedule: Q01DX007 (ip), vehicle: carboxymethylcellulose (CMC)); 123 % of control (dose: 60.0 mg/kg/injection, schedule: Q01DX007 (ip), vehicle: carboxymethylcellulose (CMC)).

Turning to `Cc1cc(C(=O)NN)c(C#N)c(=O)[nH]1`, the T/C is, setting by setting: (dose: 111.0 mg/kg/injection, schedule: Q01DX007 (ip), vehicle: carboxymethylcellulose (CMC)) 82 % of control; (dose: 166.0 mg/kg/injection, schedule: Q01DX007 (ip), vehicle: carboxymethylcellulose (CMC)) 87 % of control; under setting [3], 30 % of control; (dose: 375.0 mg/kg/injection, schedule: Q01DX007 (ip), vehicle: carboxymethylcellulose (CMC)) 46 % of control.

Take `CC(=O)[C@H]1[C@H](C)C[C@H]2[C@@H]3CCC4=CC(=O)CC[C@]4(C)[C@@]3(F)[C@@H](O)C[C@@]21C`: the T/C runs as follows: (dose: 3.0 mg/kg/injection, schedule: Q01DX007 (sc), vehicle: steriod suspending solution) 87 % of control; (dose: 6.1 mg/kg/injection, schedule: Q01DX007 (sc), vehicle: steriod suspending solution) 63 % of control; under setting [1], 47 % of control; under setting [2], 44 % of control; (dose: 47.0 mg/kg/injection, schedule: Q01DX007 (sc), vehicle: steriod suspending solution) 13 % of control; (dose: 94.0 mg/kg/injection, schedule: Q01DX007 (sc), vehicle: steriod suspending solution) 26 % of control. The T/C reads like this: (dose: 187.5 mg/kg/injection, schedule: Q#A X014 (sc), vehicle: steriod suspending solution) 29 % of control and 31 % of control and 33 % of control; (dose: 281.25 mg/kg/injection, schedule: Q#A X014 (sc), vehicle: steriod suspending solution) 22 % of control and 28 % of control and 42 % of control; (dose: 500.0 mg/kg/injection, schedule: Q01DX007 (sc), vehicle: steriod suspending solution) 25 % of control; (dose: 562.0 mg/kg/injection, schedule: Q01DX007 (sc), vehicle: steriod suspending solution) 36 % of control; (dose: 600.0 mg/kg/injection, schedule: Q01DX007 (sc), vehicle: steriod suspending solution) 20 % of control; (dose: 700.0 mg/kg/injection, schedule: Q01DX007 (sc), vehicle: steriod suspending solution) 28 % of control. In addition, the T/C was 16 % of control (dose: 800.0 mg/kg/injection, schedule: Q01DX007 (sc), vehicle: steriod suspending solution); 21 % of control (dose: 843.0 mg/kg/injection, schedule: Q01DX007 (sc), vehicle: steriod suspending solution); 29 % of control (dose: 1265.0 mg/kg/injection, schedule: Q01DX007 (sc), vehicle: steriod suspending solution); 24 % of control (dose: 1890.0 mg/kg/injection, schedule: Q01DX007 (sc), vehicle: steriod suspending solution).

Take `O=C1Nc2ccccc2/C1=C/c1cccnc1`: the T/C (dose: 62.5 mg/kg/injection, schedule: Q01DX007 (ip), vehicle: carboxymethylcellulose (CMC)) is 100 % of control; the T/C (dose: 125.0 mg/kg/injection, schedule: Q01DX007 (ip), vehicle: carboxymethylcellulose (CMC)) is 79 % of control; the T/C under setting [3] was 43 % of control.
